How the values were obtained:
Adenosine receptor A2a = Adenosine receptor A2a (Homo sapiens, UniProt P29274); assay: Displacement of [3H]ZM241385 from human adenosine A2A receptor expressed in HEK293 cells after 1 hr by liquid scintillation counting; format: cell-based
CHO = assay: Selectivity ratio of Ki for human adenosine A1 receptor expressed in CHO cells to Ki for human adenosine A2A receptor expressed in HEK293 cells; format: cell-based
[1] = Half life in Sprague-Dawley rat liver microsomes at 3 uM by LC-MS analysis; format: ADME
Adenosine receptor A1 = biological target: T1, Adenosine receptor A1 (Homo sapiens, UniProt P30542); assay: Displacement of [3H]DPCPX from human adenosine A1 receptor expressed in CHO cells after 1 hr by liquid scintillation counting; format: cell-based
T1 sequence (P30542 whole entry): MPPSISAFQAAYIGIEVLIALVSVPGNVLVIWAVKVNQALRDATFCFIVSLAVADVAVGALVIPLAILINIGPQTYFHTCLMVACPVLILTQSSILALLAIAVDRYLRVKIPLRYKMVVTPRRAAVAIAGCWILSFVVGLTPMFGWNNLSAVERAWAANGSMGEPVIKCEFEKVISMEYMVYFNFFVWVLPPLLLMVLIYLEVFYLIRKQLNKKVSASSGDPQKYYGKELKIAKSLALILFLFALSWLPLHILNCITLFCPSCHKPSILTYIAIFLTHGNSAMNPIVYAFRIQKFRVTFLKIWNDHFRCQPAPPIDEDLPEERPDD

Adenosine receptor A2b = biological target: T2, Adenosine receptor A2b (Homo sapiens, UniProt P29275); assay: Displacement of [3H]MRS1754 from adenosine A2B receptor (unknown origin) expressed in HEK293 cells after 90 mins; format: cell-based
T2 sequence (P29275 whole entry): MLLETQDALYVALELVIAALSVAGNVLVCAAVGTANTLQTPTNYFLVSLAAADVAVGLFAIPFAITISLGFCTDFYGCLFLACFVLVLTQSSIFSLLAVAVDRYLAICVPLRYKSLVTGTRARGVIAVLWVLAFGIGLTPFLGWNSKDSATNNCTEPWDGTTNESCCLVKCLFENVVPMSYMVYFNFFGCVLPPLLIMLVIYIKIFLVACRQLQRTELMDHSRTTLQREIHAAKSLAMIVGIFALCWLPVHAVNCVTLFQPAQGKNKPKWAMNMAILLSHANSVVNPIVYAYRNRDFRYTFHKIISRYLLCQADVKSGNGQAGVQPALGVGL

Adenosine receptor A3 = biological target: T3, Adenosine receptor A3 (Homo sapiens, UniProt P0DMS8); assay: Displacement of [125I]AB-MECA from adenosine A3 receptor (unknown origin) expressed in CHO-K1 cells after 60 mins; format: cell-based
T3 sequence (P0DMS8 whole entry): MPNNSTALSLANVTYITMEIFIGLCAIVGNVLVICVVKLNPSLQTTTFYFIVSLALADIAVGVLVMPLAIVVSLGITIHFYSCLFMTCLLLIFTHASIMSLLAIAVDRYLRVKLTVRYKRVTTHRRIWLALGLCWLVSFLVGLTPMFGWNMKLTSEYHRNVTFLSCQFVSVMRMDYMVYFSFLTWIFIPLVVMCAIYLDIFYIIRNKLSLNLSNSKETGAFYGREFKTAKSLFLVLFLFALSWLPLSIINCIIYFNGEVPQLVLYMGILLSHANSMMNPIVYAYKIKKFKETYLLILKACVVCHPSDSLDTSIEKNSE

Adenosine receptor A2a, sequence (P29274 whole entry): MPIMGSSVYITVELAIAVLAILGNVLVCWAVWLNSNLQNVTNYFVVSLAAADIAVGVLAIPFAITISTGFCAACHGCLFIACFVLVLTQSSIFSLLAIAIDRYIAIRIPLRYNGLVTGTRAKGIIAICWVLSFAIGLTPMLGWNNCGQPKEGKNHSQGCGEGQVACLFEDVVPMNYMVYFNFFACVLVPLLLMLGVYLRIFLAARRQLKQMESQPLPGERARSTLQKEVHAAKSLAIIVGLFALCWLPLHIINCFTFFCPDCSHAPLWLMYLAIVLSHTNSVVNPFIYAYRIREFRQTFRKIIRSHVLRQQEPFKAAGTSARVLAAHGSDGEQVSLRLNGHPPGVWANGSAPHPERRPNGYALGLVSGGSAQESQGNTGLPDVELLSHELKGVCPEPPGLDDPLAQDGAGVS

| SMILES | Ki (Adenosine receptor A2a; read-out: pKi (converted)) [nM] | other results |
| --- | --- | --- |
| Cc1csc(-c2coc3cc(OCC(=O)O)cc(C)c3c2=O)n1 | 2000 |  |
| CCCc1cc2c(=O)c(-c3nc(C)cs3)coc2cc1O | 25.1 |  |
| CCc1cc2c(=O)c(-c3csc(C)n3)coc2cc1O | 50.1 |  |
| Cc1csc(-c2coc3cc(OCCN(C)C)cc(C)c3c2=O)n1 | 1580 |  |
| Cc1csc(-c2c(C)oc3cc(O)ccc3c2=O)n1 | 7940 |  |
| Cc1csc(-c2coc3cccc(C)c3c2=O)n1 | 316 | half-life at 3 µM [1]: 14 min |
| CCc1cc2c(=O)c(-c3nc(C)cs3)coc2cc1O | 79.4 | Ratio Ki (CHO): > 100 |
| CCOc1cc2occ(-c3nc(C)cs3)c(=O)c2cc1CC | 39.8 | Ki (Adenosine receptor A1): 5000 nM; IC50 (Adenosine receptor A2b): > 10000 nM; Ki (Adenosine receptor A2b): > 10000 nM; IC50 (Adenosine receptor A3): > 10000 nM; Ki (Adenosine receptor A3): > 10000 nM; Ki (Adenosine receptor A2a; read-out: Ki): 40 nM; half-life at 3 µM [1]: 16 min |

Second part, led by results:

| Ki (Adenosine receptor A2a; read-out: pKi (converted)) [nM] | SMILES | other results |
| --- | --- | --- |
| 25.1 | C#CCCCOc1cc(C)c2c(=O)c(-c3nc(C)cs3)coc2c1 |  |
| 31.6 | CC(=O)Oc1cc(C)c2c(=O)c(-c3nc(C)cs3)coc2c1 | Ratio Ki (CHO): 13 |
| 31.6 | CCCc1cc2c(=O)c(-c3csc(C)n3)coc2cc1O |  |
| 1580 | CCc1cc2c(=O)c(-c3cscn3)coc2cc1O |  |
| 79.4 | Cc1csc(-c2coc3cc(OCC4CC4)cc(C)c3c2=O)n1 | Ratio Ki (CHO): > 100; half-life at 3 µM [1]: 18 min |
| 100 | CCOC(=O)COc1cc(C)c2c(=O)c(-c3nc(C)cs3)coc2c1 |  |
| 20 | CCCCCc1cc2c(=O)c(-c3nc(C)cs3)coc2cc1O | Ratio Ki (CHO): > 100 |
| 2000 | Cc1csc(-c2coc3cc(O)ccc3c2=O)n1 |  |
